Data reported in US6610747B2, “Phenoxybenzylamine derivatives as SSRIs” (Pfizer Inc., priority 2000, dated 2003).
pIC50: −log10 of the molar value.

Molecular target: T1, human serotonin transporter (hSERT) (Homo sapiens, UniProt P31645)
T1 construct: expressed in transfected cells; host or cells: HEK-293
Test: Inhibition of 3H-serotonin uptake in HEK-293 cells stably transfected with the human serotonin transporter (SRI)
Assay type: cell-based
Conditions: HEK-293 cells expressing hSERT; 3H-5HT (50 nM); 5 min incubation; room temperature; read-out: serotonin re-uptake inhibition (SRI) IC50
Experimental: A number of compounds were tested for biological activity by their ability to inhibit the uptake of serotonin by human serotonin transporters as follows.
Human embryonic kidney cells (HEK-293) stably transfected with either the human serotonin transporter (hSERT), noradrenaline transporter (hNET) or dopamine transporter (hDAT) were cultured under standard cell culture techniques (cells were grown at 37° C. and 5% CO2 in DMEM-culture media (supplemented with 10% dialysed foetal calf serum (FCS), 2mM l-glutamine and 250 μg/ml geneticin)). Cells were harvested for the assay to yield a cell suspension of 750,000 cells/ml.
(i) Determination of Inhibitor Potency
All test compounds were dissolved in 100% DMSO and diluted down in assay buffer to give appropriate test concentrations. Assays were carried out in 96-well filter bottom plates. Cells (7500 cells/assay well) were pre-incubated in standard assay buffer containing either test compound, standard inhibitor or compound vehicle (1% DMSO) for 5 minutes. Reactions were started by addition of either ^3H-Serotonin, ^3H-Noradrenaline or ^3H-Dopamine substrates. All reactions were carried out at room temperature in a shaking incubator. Incubation times were 5 minutes for the hSERT and hDAT assays and 15 minutes for the hNET assay. Reactions were terminated by removal of the reaction mixture using a vacuum manifold followed by rapid washing with ice cold assay buffer. The quantity of ^3H-substrate incorporated into the cells was then quantified.
Assay plates were dried in a microwave oven, scintillation fluid added, and radioactivity measured.
(iii) Standard Assay Buffer Composition
Trizma hydrochloride (26 mM)
Note: The pH of the buffer was adjusted to 7.40 with 1M NaOH before addition of CaCl2 and pargyline.
(iv) Summary of Assay Parameters

T1 sequence (P31645 whole entry): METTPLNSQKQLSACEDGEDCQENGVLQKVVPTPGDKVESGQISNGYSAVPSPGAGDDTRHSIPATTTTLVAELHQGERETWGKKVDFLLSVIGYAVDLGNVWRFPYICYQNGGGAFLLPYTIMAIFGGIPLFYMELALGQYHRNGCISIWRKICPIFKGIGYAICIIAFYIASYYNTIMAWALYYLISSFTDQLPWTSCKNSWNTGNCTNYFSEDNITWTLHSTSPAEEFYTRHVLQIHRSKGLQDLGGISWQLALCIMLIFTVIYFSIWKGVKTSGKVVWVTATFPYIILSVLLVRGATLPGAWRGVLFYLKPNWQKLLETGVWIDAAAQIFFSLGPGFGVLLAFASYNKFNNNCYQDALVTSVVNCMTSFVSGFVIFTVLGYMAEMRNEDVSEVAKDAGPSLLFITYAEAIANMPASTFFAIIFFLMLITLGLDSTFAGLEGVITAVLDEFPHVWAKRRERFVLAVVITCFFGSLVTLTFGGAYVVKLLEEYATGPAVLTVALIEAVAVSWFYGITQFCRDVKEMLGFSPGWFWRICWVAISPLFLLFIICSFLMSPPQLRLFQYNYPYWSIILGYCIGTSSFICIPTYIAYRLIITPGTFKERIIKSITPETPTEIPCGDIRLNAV

pIC50	SMILES
8.70	CN(C)Cc1ccccc1Oc1ccc2ncccc2c1 [Example 29, N,N-dimethyl-N-[2-(6-quinolinyloxy)benzyl]amine]
8.33	CN(C)Cc1cc(S(N)(=O)=O)ccc1Oc1ccc2c(c1)CCS2 [Example 16, 4-(2,3-dihydro-1-benzothien-5-yloxy)-3-[(dimethylamino)methyl]-benzenesulfonamide]
8.43	CNCc1cc(C(=O)NC)ccc1Oc1ccc2c(c1)CCS2 [Example 62, 4-(2,3-dihydro-1-benzothien-5-yloxy)-N-methyl-3-[(methylamino)methyl]-benzamide]
